Experimental findings from PubChem BioAssay AID624258 (Broad Institute, 2012) are described below.

The source made the active and inactive calls. The rule behind the calls is not given here.

The experiment relates to S. cerevisiae SKN7-toxicity growth rescue, plate reader. Description: SKN7 mediated toxicity in Saccharomyces cerevisiae, growth rescue counterscreen, dose confirmation (AID 624258).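 Note: growth read after three days of incubation at 30 °C.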 A general note: A counterscreen serves to expose hits that act by an unwanted route or on another target.
In the case of `CC(C)(C)c1ccc(Oc2ccc(N)cc2)cc1`, the AC40 was 1.95 µM.

As for `O/C(=C\c1nc2ccccc2nc1/C=C(\O)c1ccccc1)c1ccccc1`, the AC40 is 4.59 µM.

For the compound `COc1cccc2c1C(=O)c1c(O)c3c(c(O)c1C2=O)C[C@@](O)(C(=O)CO)C[C@@H]3O[C@H]1C[C@H](N)[C@H](O)[C@H](C)O1`, the AC40 is 6.21 µM.

For the compound `Nc1c(Cl)ncnc1N/N=C/c1ccc2ccccc2n1`, the AC40 is 4.34 µM.

As to `O=[N+]([O-])c1ccc(-c2nc(-c3cccs3)c(-c3cccs3)[nH]2)cc1`, the AC40 is 4.72 µM.

On to `Nc1[nH]c(=O)ncc1F`, for which the AC40 is 1.83 µM.

With `Cc1nn(CCO)c(N)c1C1(O)C(=O)Nc2c(Cl)cc(Cl)cc21` (stereo not drawn), the AC40 is 18.5 µM.

Consider `Cc1cc([N+](=O)[O-])cc(/C=N/n2c(C)nc3ccccc3c2=O)c1O`, for which the AC40 is 4.24 µM.

For `C(=N\NC1=Nc2cccc3cccc1c23)/c1ccccn1`, the AC40 was 5.47 µM.

Regarding `O=C(COC(=O)c1ccc([N+](=O)[O-])o1)NCc1ccc(F)cc1`, the AC40 is 6.69 µM.

Turning to `CC1=CC(=O)C(C(C)C)=C/C1=N/OS(=O)(=O)c1ccccc1`, the AC40 is 0.11 µM.

Take `Cc1ccccc1NC(=O)CSc1ccc(-c2ccccn2)nn1`: the AC40 is 7.17 µM.

Take `O=C1c2ccccc2C(=O)c2c1oc(C(F)(F)F)c2C(=O)c1ccccc1`: the AC40 was 2.6 µM.

In the case of `CN(C1=C(NC(=O)c2ccc(Cl)cc2)C(=O)c2ccccc2C1=O)c1ccccc1`, the AC40 was 4.87 µM.

In the case of `N#C/C(=C\c1cccnc1)c1ccc([N+](=O)[O-])cc1`, the AC40 was 16.7 µM.

With `Oc1c(C(Nc2cccc(C(F)(F)F)c2)c2cccnc2)ccc2cccnc12` (stereo not drawn), the AC40 is 2.73 µM.

For `Cc1cc(F)ccc1S(=O)(=O)N(C(=O)c1ccncc1)c1ccc(OC(=O)c2ccncc2)cc1`, the AC40 is 2.42 µM.

For the compound `Cc1nc(SCC(=O)N2CCN(c3ccccc3)CC2)c2oc3ccccc3c2n1`, the AC40 was 3.53 µM.

In the case of `O=C(O/N=C(\c1ccccc1)c1ccncc1)c1ccccc1Cl`, the AC40 was 9.26 µM.

Consider `CC(NC(=S)NC1CCC(C(C)(C)C)CC1)c1ccccc1` (stereo not drawn), for which the AC40 was 6.16 µM.

`COc1ccc(C(=O)NC(=S)NNC(=O)CCc2ccccc2)cc1`: the AC40 was 1.42 µM.

Regarding `Clc1cccc(CON/C=N/c2ncnc3sccc23)c1`, the AC40 is 3.8 µM.

On to `CCOC(=O)N1CCN(S(=O)(=O)c2ccc(C(=O)NNc3nc4ccc(Cl)cc4s3)cc2)CC1`, for which the AC40 was 6.89 µM.

With `O=C(C=Cc1cccc(O)c1)c1ccccc1O`, the AC40 is 1.43 µM.

Consider `Cc1ccc(N(CN2C(=O)c3ccccc3C2=O)C(=O)c2ccc([N+](=O)[O-])cc2[N+](=O)[O-])cc1`, for which the AC40 is 7.16 µM.

For `O=C(CSc1ccc(-c2ccccn2)nn1)NCc1ccccc1`, the AC40 is 7.08 µM.

Turning to `Cc1cccc2sc(NNC(=O)c3ccc(S(=O)(=O)N4CC(C)CC(C)C4)cc3)nc12` (stereo not drawn), the AC40 was 0.736 µM.

Take `CC(C)CN=Cc1c(O)c([N+](=O)[O-])cc2oc3c(c12)CCCC3`: the AC40 was 1.25 µM.

Take `CCCCC(=O)NC(c1ccc(OC)c(OC)c1)c1ccc2cccnc2c1O` (stereo not drawn): the AC40 was 1 µM.

On to `O=S(=O)(Nc1nc2ccccc2nc1N1CCN(c2ccccn2)CC1)c1ccc(Cl)cc1`, for which the AC40 was 0.818 µM.

Consider `O=C1c2ccccc2NC(c2ccc(-c3ccc(C(F)(F)F)cc3)o2)N1O` (stereo not drawn), for which the AC40 is 1.71 µM.

Turning to `c1ccc2c(-c3c[nH]c4ccccc34)c3ccccc3nc2c1`, the AC40 was 5.73 µM.

For the compound `CC1CCc2sc(-c3n[nH]c(=S)o3)cc2C1` (stereo not drawn), the AC40 was 0.663 µM.

As to `Cc1ccc(CN2CC(C(=O)N(Cc3nnc(-c4ccccc4Cl)o3)C3CC3)CC2=O)cc1` (stereo not drawn), the AC40 is 8.15 µM.

In the case of `COc1ccc2c(c1)OC[C@H]1[C@H]2N2C(=O)c3cc(OC)ccc3NC(=O)[C@@]2(C)[C@H]1c1ccccc1`, the AC40 was 9.31 µM.

Take `O=c1c(=Nc2ccccc2O)c(=O)c2ccccc12`: the AC40 was 1.06 µM.

On to `CCOc1ccc(-n2c(O)c(/C=N/NC(=O)C3COc4ccccc4O3)c3ccccc3c2=O)cc1` (stereo not drawn), for which the AC40 was 2.18 µM.

With `O=c1[nH]c(=O)n(C2OC(CO)C(O)C2O)cc1F` (stereo not drawn), the AC40 is 12.9 µM.

Regarding `COc1cccc(/C=N/Nc2ncnc(Cl)c2N)c1O`, the AC40 is 3.72 µM.

Regarding `COc1cc2c(cc1/C=C/[N+](=O)[O-])OCO2`, the AC40 was 6.54 µM.

On to `CC(C)(C)c1cc(CCC(=O)NNC(=S)NC(=O)c2ccccc2)cc(C(C)(C)C)c1O`, for which the AC40 was 6.31 µM.

Turning to `Cc1cc([N+](=O)[O-])c(NC2CCCCC2)c([N+](=O)[O-])c1`, the AC40 is 10.1 µM.

For `O=C(O)c1ccccc1NS(=O)(=O)c1cccc(-n2sc3ccccc3c2=O)c1`, the AC40 was 4.77 µM.

As to `Cc1ccc(Sc2ccc([N+](=O)[O-])cc2[N+](=O)[O-])nc1`, the AC40 was 10.1 µM.

Regarding `CSc1nccc(NC(=O)c2ccc(C(C)(C)C)cc2)n1`, the AC40 was 7.82 µM.

On to `O=C(Oc1cccc(C(=S)N2CCOCC2)c1)c1ccc([N+](=O)[O-])cc1[N+](=O)[O-]`, for which the AC40 is 16.4 µM.

Turning to `O=C(COc1ccc(Cl)cc1)NCCSCc1cccc(Cl)c1`, the AC40 was 3.16 µM.

In the case of `O=[N+]([O-])c1cc2oc3c(c2c(C=NCc2ccccc2)c1O)CCCC3`, the AC40 was 1.38 µM.

`O=c1c2c(-c3ccc(Cl)cc3)csc2ncn1/N=C/c1cccc([N+](=O)[O-])c1O`: the AC40 is 1.23 µM.

Take `Cc1cc2[nH]c3c4ccccc4nc(C)c3c2cc1C`: the AC40 is 11.2 µM.

Turning to `Oc1ccc(Cl)cc1CNc1cccc2cccnc12`, the AC40 was 0.156 µM.

Take `O=C(CSc1ccc(-c2ccccn2)nn1)NC1CCCC1`: the AC40 was 7.77 µM.

Consider `Oc1ccc(-c2nc3ccccc3s2)c(O)c1`, for which the AC40 was 0.726 µM.

Take `COc1ccc2c(c1)OC[C@H]1[C@H]2N2C(=O)c3cc(Cl)ccc3NC(=O)[C@@]2(C)[C@H]1c1ccccc1`: the AC40 was 10.8 µM.

As to `Cc1ccc(-n2nnnc2C(Cl)c2nnnn2-c2ccc(C)cc2)cc1`, the AC40 is 0.497 µM.

Regarding `COc1ccccc1CNC(=O)CSc1ccc(-c2ccccn2)nn1`, the AC40 was 10.3 µM.

For the compound `O=C(COC(=O)c1ccc([N+](=O)[O-])o1)NC1CCCc2ccccc21` (stereo not drawn), the AC40 is 2.34 µM.

Take `O=C1C=C(Nc2cccnc2)c2ccccc2C1=O`: the AC40 was 11 µM.

In the case of `COc1ccc(C(c2c(O)ccc3ccccc23)N2CCOCC2)c(OC)c1` (stereo not drawn), the AC40 was 2.35 µM.

Regarding `CCC(Oc1ccccc1)C(=O)Nc1ncc([N+](=O)[O-])s1` (stereo not drawn), the AC40 is 0.668 µM.

Regarding `COc1ccc(/C=C(\C#N)c2c[nH]c3ccccc23)cc1`, the AC40 is 17.6 µM.

Turning to `N#CC1=C(N)NC(=S)C(C(N)=O)C1c1ccc(Cl)cc1Cl` (stereo not drawn), the AC40 is 10.5 µM.

Turning to `Cc1ccc(S(=O)(=O)N2CCOC23CCN(C(=O)c2cc(Cl)ccc2Cl)CC3)cc1`, the AC40 is 7.25 µM.

On to `COc1ccc(N(C(=O)c2ccncc2)S(=O)(=O)c2ccc(F)cc2)cc1`, for which the AC40 is 3.67 µM.

As for `Cc1c2cnccc2c(C)c2c1oc1ccccc12`, the AC40 is 2.99 µM.

In the case of `CCc1ccc([C@@H]2CC=C(C(=O)O)[C@H](c3ccc(Cl)cc3)N2S(=O)(=O)c2ccc(C)cc2)cc1`, the AC40 is 4.51 µM.

Regarding `O=c1c(-c2cccc3ccccc23)[n+]([O-])c2ccccc2n1O`, the AC40 was 12.6 µM.

Take `CC1=C(C)/C(=N\OS(=O)(=O)c2ccc(C)cc2)C=CC1=O`: the AC40 is 1.11 µM.

For `CCCc1cc(-c2n[nH]c(=S)n2-c2cccc(C)c2)cs1`, the AC40 is 17 µM.

As to `Cc1ccc(C)c(S(=O)(=O)N2CCN(Cc3ccc(O)c4ncccc34)CC2)c1`, the AC40 was 5.93 µM.

`Clc1cccc(N/N=C(\Cc2nc3ccccc3[nH]2)c2ccccc2)c1`: the AC40 was 2.61 µM.

On to `CCc1ccccc1OCC(=O)Nc1nc(-c2cccnc2)cs1`, for which the AC40 was 1.23 µM.

Regarding `S=c1[nH]nc(-c2ccco2)n1/N=C/C(Cl)=C/c1ccccc1`, the AC40 is 10.8 µM.

As to `O=C(N/N=C/c1sc(N2CCOCC2)nc1-c1ccccc1)c1ccccc1O`, the AC40 was 3.04 µM.

For `O=[N+]([O-])c1cccc(-c2cc(-c3cc(Br)ccc3O)[nH]n2)c1`, the AC40 is 8.39 µM.

Take `CCOC(=O)/C(=C/c1ccc(OC(=O)c2ccccc2)cc1)C(C)=O`: the AC40 was 1.83 µM.

Regarding `O=S(=O)(CCSc1nc2ccccc2s1)c1nc2ccccc2s1`, the AC40 is 2.43 µM.

As for `O=C1c2ccccc2NC(c2ccc(Cl)cc2Cl)N1O` (stereo not drawn), the AC40 is 7.55 µM.

On to `Cc1ccccc1N1CCN(C2=NC(=O)/C(=C\c3cccs3)S2)CC1`, for which the AC40 was 4.83 µM.

As to `Cc1cc(Cl)ccc1OCC(=O)NCCCCc1ccccc1`, the AC40 is 8.43 µM.

Consider `COc1ccc(-c2cc(C(=O)NNC(=S)NC(=O)c3c(-c4ccccc4)noc3C)[nH]n2)cc1`, for which the AC40 is 2.31 µM.

In the case of `COc1ccc(NC(=O)/C(Cl)=C(/Cl)S(=O)(=O)Cc2ccc(C)cc2)cn1`, the AC40 was 1.24 µM.

For `O=C(Oc1cccc(NC(=O)c2ccccc2Cl)c1)c1ccc([N+](=O)[O-])cc1`, the AC40 is 14.1 µM.

Take `Cc1ccccc1CSCCNC(=O)COc1ccc(Cl)cc1`: the AC40 was 7.18 µM.

In the case of `Cc1ccc(NC(=O)c2cc(N3C(=O)C=CC3=O)ccc2Cl)cc1C`, the AC40 was 0.342 µM.

On to `Cc1cccc(N2CCN(C(=O)C3CCCCC3)CC2)c1C`, for which the AC40 was 19.3 µM.

As for `O=C1c2ccccc2NC(c2ccc(-c3ccc(F)cc3)o2)N1O` (stereo not drawn), the AC40 was 14 µM.

For the compound `Cc1ccc(CNC(=O)C2COc3ccccc3O2)cc1` (stereo not drawn), the AC40 is 17.7 µM.

Take `COc1ccc(N2C(=O)C(Cl)=C(Nc3ccccc3O)C2=O)cc1`: the AC40 was 4.9 µM.

For `Cc1nc(Sc2ccc(Cl)cc2)c(C#N)c(C)c1[N+](=O)[O-]`, the AC40 is 0.937 µM.

Turning to `CC(C)(C)c1ccc(Cn2ccc(-c3ccc4c(c3)OCO4)n2)cc1`, the AC40 is 8.82 µM.

Take `CCCOc1ccc(N2C(=O)CC(N3CCC(C(=O)OCC)CC3)C2=O)cc1` (stereo not drawn): the AC40 was 6.17 µM.

As to `CNC1=C(N(C(C)=O)c2ccc(Br)cc2)C(=O)c2ccccc2C1=O`, the AC40 is 15.8 µM.

For `CCOC(=O)c1c(-c2ccccc2)oc2ccc(O)cc12`, the AC40 is 10.4 µM.

For the compound `CC1S/C(=C(\C#N)C(=O)NCc2ccco2)N(Cc2ccco2)C1=O` (stereo not drawn), the AC40 was > 19.5 µM (inactive).

Take `CCCCNC1=CC(=O)C(=O)c2ccccc21`: the AC40 is 17.5 µM.

Regarding `C(=N\Nc1nncc2ccccc12)/c1ccccn1`, the AC40 was 3.27 µM.

Turning to `Cc1ccc(-c2nn(C(C)(C)C)c3ncnc(N)c23)cc1`, the AC40 was 9.29 µM.
